Measured values from patent US20160022751A1, “NOVEL COMPOSITION FOR TREATING ALZHEIMER'S DISEASE AND IMPROVING COGNITIVE FUNCTION OF ALZHEIMER'S PATIENTS” (GANGNEUNG-WONJU NATIONAL UNIVERSITY INDUSTRY ACADEMY …, priority 2014, published 2016).

Tests used:
Format in all cases: cell-based, mouse
N2a cells = assay: Morphological analysis of N2a cells (optical microscopy); settings: untreated cells mostly rounded (FIG. 9C)
Procedure: (§1) Followed by the RT-PCR analysis, the present inventor investigated whether ginsenosides Re and Rd induce the expression of MAP-2 and p75 and the differentiation of neurons actually, via immunocytochemistry and morphological analysis using optical microscopic observation.
(§2) Specifically, Cultured N2a cells were fixed in 4% paraformaldehyde (in PBS) for 15 min, washed twice with PBS supplemented with 100 mM glycine for 5 min, and incubated with permeabilization buffer consisting of 0.1% Triton X-100 (Sigma-Aldrich, USA) in PBS for 30 min at room temperature. Blocking was performed with 1% bovine serum albumin (BSA, Sigma-Aldrich, USA) for 30 min at room temperature. Then Microtubule-Associated Protein-2 (MAP-2) or VAChT mouse monoclonal antibody 1:200 (Santa Cruz Biotechnology, USA) was added to 1% BSA in PBS with Tween 20 (PBST) and incubated for 2 h at room temperature. Cells were then washed three times with PBS before fluorescein isothiocyanate (FITC)-conjugated anti-mouse immunoglobulin G (IgG) 1:200 (Cell Signaling Technology, USA) was added to 1% BSA for 1 h at room temperature. The cells were rinsed and counterstained with 4,6-diamidino-2-phenylindole (DAPI, Sigma-Aldrich) for 10 min, followed by two PBS washes. […]

NGF = NGF mRNA expression in N2a cells (quantitative RT-PCR); settings: N2a cells (FIG. 13)
Source text: (§3) Since NGF-Trk signal pathway upregulates ChAT and VAChT, it is important to know whether ginsenosides Rd and Re regulate Trk activity directly or at least indirectly. Therefore, the inventor investigated whether the expression of ChAT and VAChT was blocked by treating K252a, an inhibitor against protein kinase C (PKC) and Trk together with ginsenoside Rd or Re, in order to determine more closely whether the expression of cholinergic surface markers and the differentiation of neurons by the treatment of ginsenosides Rd and Re are caused whereby they act NGF-TrkA pathway directly. Particularly, N2a cells were treated with or without K252a (50 nM) in the presence of NGF (100 ng/mL), Re (5 μg/mL) or Rd (5 μg/mL) for 48 h. Total RNA and protein lysates were isolated as described in the Example 4-1 (FIG. 12). […] In addition, the present inventor performed quantitative RT-PCR in order to verify whether the treatment of ginsenosides Rd and Re affect the expression of NGF and NGFR in N2a cells.

CHT1 = CHT1 expression in N2a cells; settings: N2a cells (FIG. 7E)
Procedure: (§4) Specifically, total RNA extracts from N2a cells were prepared using the Trizol method (Invitrogen, USA) and cDNA was synthesized from RNA by reverse transcription of 1 μg of total RNA using a reverse transcription system (Improm-II, Promega, USA) and oligo dT primers in a total volume of 20 μL. PCR amplification was performed using the primers described in Table 2 (Bioneer, Korea). Quantitative real-time PCR reactions were run on a Rotor-Gene 6000 (Corbett Research, Australia) using SensiMix™ SYBR Hi-ROX Kit (Bioline, U.K.) in 20 μL reaction mixtures. Each real-time-PCR master mix contained 10 μL 2× enzyme master mix, 7.0 μL RNase free water, 1 μL of each primer (10 pM each), and 1 μL diluted template. The PCR was performed with an initial pre-incubation step for 15 min at 95° C., followed by 45 cycles of 95° C. for 15 s, annealing at 52° C. for 15 s, and extension at 72° C. for 10 s. Melting curve analysis was used to confirm formation of the expected PCR product, and products from all assays were additionally tested with 1.2% agarose gel electrophoresis to confirm the correct lengths. […] Relative sample expression levels were calculated using Rotor-Gene 6000 Series Software 1.7, and were expressed relative to β-actin and corrected for between-run variability. Data for the experimental samples were expressed as a fold unit the internal control gene. […]

p75 = p75 protein immunocytochemistry in N2a cells; settings: compared with NGF (FIG. 9B)
Procedure: as §1, §2

ChAT = ChAT expression in N2a cells with or without Trk inhibitor K252a; settings: K252a 50 nM, ginsenoside 5 μg/mL, 48 h (FIG. 12)
Source text: as §3

TrkA = TrkA gene expression in N2a cells (quantitative RT-PCR); settings: 24 h, Rd 5 μg/ml, Re 5 μg/ml or Rd/Re each 2.5 μg/ml (FIG. 11)
Procedure: On the other hand, the present inventor investigates the expression level of TrkA gene after treating ginsenoside Rd (5 μg/ml), Re (5 μg/ml) or mixture of Rd/Re (each 2.5 μg/ml) to N2a cells for 24 h, using quantitative RT-PCR method, similar to the method described in the Example 4 (FIG. 11).

MAP-2 [1] = assay: MAP-2 protein immunocytochemistry in N2a cells; settings: compared with NGF (FIG. 9A)
Procedure: as §1, §2

MAP-2 [2] = assay: MAP-2 mRNA expression in N2a cells (real-time RT-PCR); settings: 5 μg/ml (FIG. 8)
Procedure: as §4

Row | Structure (SMILES) | morphological changes of N2a cells (N2a cells) | NGF mRNA level (NGF) | expression of CHT1 (CHT1) | p75 protein expression (p75) | ChAT expression on co-treatment with K252a compared with single treatment (ChAT) | expression of TrkA (TrkA) | production of MAP-2 protein (MAP-2 [1]) | expression of MAP-2 mRNA (MAP-2 [2])
1 | CC(C)=CCC[C@](C)(O[C@@H]1O[C@H](CO)[C@@H](O)[C@H](O)[C@H]1O)[C@H]1CC[C@]2(C)[C@@H]1[C@H](O)C[C@@H]1[C@@]3(C)CC[C@H](O[C@@H]4O[C@H](CO)[C@@H](O)[C@H](O)[C@H]4O[C@@H]4O[C@H](CO)[C@@H](O)[C@H](O)[C@H]4O)C(C)(C)[C@@H]3CC[C@]12C [ginsenoside Rd] | induced the production of distinctive multiple projections | significantly increased | increased | switched to p75-positive N2a cells to the same or more extent as NGF | inhibited | increased the expression of TrkA in a dose-dependent manner | stimulated effectively the production of MAP-2 protein | significantly increased
2 | CC(C)=CCC[C@](C)(O[C@@H]1O[C@H](CO)[C@@H](O)[C@H](O)[C@H]1O)[C@H]1CC[C@]2(C)[C@@H]1[C@H](O)C[C@@H]1[C@@]3(C)CC[C@H](O)C(C)(C)[C@@H]3[C@@H](O[C@@H]3O[C@H](CO)[C@@H](O)[C@H](O)[C@H]3O[C@@H]3O[C@@H](C)[C@H](O)[C@@H](O)[C@H]3O)C[C@]12C [ginsenoside Re] | induced the production of distinctive multiple projections | significantly increased | increased | switched to p75-positive N2a cells to the same or more extent as NGF | inhibited | increased the expression of TrkA in a dose-dependent manner | stimulated effectively the production of MAP-2 protein | significantly increased
